Source: the METLIN SMRT retention time set (Domingo-Almenara et al. 2019)

test: gradient 5% acetonitrile 3 min, to 50% in 2 min, to 85% in 15 min, held 3 min, 100 µL/min; details: column: Zorbax Extend-C18 2.1 x 50 mm; eluents: water / acetonitrile, 0.1% formic acid
How it was run: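 In both positive and negative ionization mode, a quadrupole time-of-flight mass spectrometer coupled to HPLC analyzed pure standards run in mixtures of ~100 molecules. The Zorbax Extend-C18 column (2.1 × 50 mm, 1.8 μm) was operated at 100 μL/min with water and acetonitrile, each containing 0.1% formic acid. The dead volume was 40 μL and the dwell volume 900 μL. Retention time came from adduct peaks that were computationally picked and individually inspected by hand.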

RP-LC retention time	SMILES
591 s	Cc1sc2ccn(Cc3ccc(F)cc3)c(=O)c2c1C(=O)NCCN1CCN(C)CC1
1010 s	Cc1ccc(-c2csc(NC(=O)Cn3c(=O)sc4ccccc43)n2)cc1
747 s	CCc1cc(=O)n(CC(=O)N(CC)c2ccccc2)c(N2CCOCC2)n1
726 s	CCN(CC)c1ncnc2c(-c3ccccc3)cn(CC(=O)NCCc3ccc(OC)c(OC)c3)c12
715 s	CCc1nncn1C1CCN(S(=O)(=O)c2ccc(F)c(C)c2)CC1
915 s	CCc1nnc(-c2cc(C)n(CC(=O)Nc3ccc(Cl)cc3C)c2C)o1
641 s	O=C(Nc1ccc(S(=O)(=O)Nc2nccs2)cc1)c1ccc([N+](=O)[O-])o1
1090 s	COc1ccc(-c2cc(C(=O)Nc3ccc(F)cc3)sn2)cc1
715 s	COc1ccc(C2Cn3cnc(C(=O)N4CCC(C(=O)NCc5cccs5)CC4)c3CO2)cc1 (stereo not drawn)
928 s	Cc1ccc(Oc2nccn3c(=O)n(CC(=O)NCCCc4ccccc4)nc23)cc1
1030 s	Cc1cc(NC(=O)Cn2cc3c(n2)CCCCC3)ccc1Br
578 s	CC(NC(=O)CCNc1c(-c2ccc(F)cc2)nc2cnccn12)c1ccccn1 (stereo not drawn)
980 s	Cc1cc2c(cc1S(=O)(=O)N1CCCCC1)N(C(=O)C1CC1)CC2
728 s	COCCN(Cc1ccc(C(C)C)cc1)Cc1cc(=O)n2cccc(C)c2n1
660 s	CCCn1c(C)cnc1C1CN(S(=O)(=O)c2ccccc2Cl)C1
629 s	O=C(NC1CC1)C1CCCN(C(=O)c2ccc(F)cc2)C1 (stereo not drawn)
774 s	COc1ccc(C(=O)NCc2c(-c3ccccc3)nc3sc(C)nn23)cn1
798 s	CC(=O)Nc1ccc(-c2noc(C3CCCN(C(=O)CCc4c[nH]c5ccccc45)C3)n2)cc1 (stereo not drawn)
629 s	CCCCNC(=O)CCC1CCN(c2cc(NC3CC3)ncn2)CC1
1220 s	CC1=NS(=O)(=O)N(Cc2ccccc2)C=C1C(=O)OCc1ccc(C)cc1C
755 s	Cc1ccc(NC(=O)Cn2c(N3CCOCC3)nc(C)cc2=O)c(Cl)c1
671 s	O=C(c1ccc(-c2cccnc2)nc1)N1CCN(c2ccc(F)cc2)CC1

RP-LC retention time	SMILES
639 s	Cc1cc(=O)n(CC(=O)Nc2ccc(N(C)C)cc2)c(-c2ccccc2)n1
747 s	COc1ccccc1OCC(=O)NCc1ccsc1
801 s	CCCCNC(=O)c1nc(Nc2ccccc2)c2ccccc2n1
656 s	Cc1ccccc1NC(=O)N1CCCC(Cn2c(C3CC3)nc3cccnc32)C1 (stereo not drawn)
1200 s	CCc1ccc(N2CC(c3noc(-c4ccc(Cl)cc4)n3)CC2=O)cc1 (stereo not drawn)
999 s	CCOc1ccc(-c2nc(-c3cccc(-c4ccn[nH]4)c3)no2)cc1
837 s	Cc1ccc(N2CCN(C(=O)CN3CCN(Cc4ccc(F)cc4)C3=O)CC2)cc1
792 s	CC1(C(=O)NCc2ccc(F)cc2)CCCN(C(=O)Nc2ccc3c(c2)OCCO3)C1 (stereo not drawn)
868 s	COC(=O)c1ccc(NC(=O)C(=O)NCC2CCN(C(=O)Oc3ccccc3)CC2)cc1
740 s	O=C(c1nc(-c2cnccn2)no1)N1CCc2ccccc21
1200 s	CC(C)CCn1c(SCc2cc(=O)n3ccccc3n2)nc2c(-c3ccccc3)cn(C)c2c1=O
591 s	O=C(C1CC(=O)N(c2n[nH]c3ccccc23)C1)N1CCC(c2nc3ccccc3[nH]2)CC1 (stereo not drawn)
585 s	CCn1cc(CN2CCC(C(=O)NCCCN3CCOCC3)CC2)c2cc(Cl)ccc21
1230 s	Cc1sc(-c2cc(C(F)(F)F)[nH]n2)cc1S(=O)(=O)N1CCN(c2cccc(Cl)c2)CC1
974 s	CCc1ccc(C2=C(C)C(N3CCCN(C(=O)CCC(C)C)CC3)=NS2(=O)=O)cc1
747 s	O=C(NCc1ccc(F)cc1)C1CCCN(S(=O)(=O)c2c[nH]c(C(=O)N3CCCC3)c2)C1 (stereo not drawn)
870 s	Cc1nn(CC(=O)NCCC2=CCCCC2)c(=O)c2c(C)n(-c3ccccc3)nc12
1070 s	CCOC(=O)c1noc2ncnc(N3CCN(c4ccccc4F)CC3)c12
969 s	CN(C)S(=O)(=O)c1ccc(-c2nnc(C(=O)NCc3cccc(Cl)c3)o2)cc1
718 s	CN(CC1CCOC1)C(=O)c1cccc(Br)c1 (stereo not drawn)
1210 s	CCOc1ccc(-c2cc3c(=O)n(Cc4nc(-c5cccc(C)c5)no4)ncn3n2)cc1
983 s	Cc1nc(CC(=O)Nc2nc(-c3ccc(Cl)cc3)c(C)s2)cs1

RP-LC retention time	SMILES
999 s	CC1CCCN(S(=O)(=O)c2cccc(-c3cn4cc(Cl)ccc4n3)c2)C1 (stereo not drawn)
886 s	Cc1nnc(-c2nnc(NCc3ccc(Cl)cc3)c3ccccc23)o1
706 s	COC(=O)c1c(NCc2c(C)noc2C)c2cccc(Cl)c2[nH]c1=O
622 s	CC(C)(C)C(O)CCNC(=O)C(=O)NC1CC1 (stereo not drawn)
749 s	CCc1nc(-c2csc(S(=O)(=O)N3CCC(C(=O)Nc4cc(C)ccn4)CC3)c2)no1
854 s	CCOc1ccccc1CNC(=O)CN1CCN(Cc2ccccc2F)C1=O
658 s	Cc1nnc2ccc(NC(=O)Nc3ccccc3F)cn12
1120 s	COc1cccc(C(C)NC(=O)C2CCCN(c3nccnc3Sc3ccc(C)cc3)C2)c1 (stereo not drawn)
895 s	c1ccc2c(N3CCCCCC3)nnc(-c3nc(C4CC4)no3)c2c1
650 s	Cc1noc(C)c1CCC(=O)N1CCN(c2c(C)nn(C3CCS(=O)(=O)C3)c2C)CC1 (stereo not drawn)
617 s	Cc1cccn2cc(-c3ccc(NS(=O)(=O)c4ccccc4)cc3)nc12
780 s	CCOC(=O)c1c(C)[nH]c(C(=O)N2CCC(CC(=O)NC(C)c3ccccc3)CC2)c1C (stereo not drawn)
876 s	CC1=C(c2ccc(C)c(C)c2)S(=O)(=O)N=C1N1CCCN(C(=O)NC2CCCC2)CC1
748 s	CCCN(C(C)=O)c1nc(-c2ccc(C3CCCCC3)cc2)cs1
1070 s	Cc1nn(-c2ccccc2)c(C)c1S(=O)(=O)N1CCC(C(=O)Nc2ccc(Cl)cc2F)CC1
958 s	CN1C(=O)c2ccccc2Oc2ccc(C(=O)NC3CCCCCC3)cc21
764 s	COc1cc(NC(=O)c2sc(-c3cn(C)c4ncccc34)nc2C)cc(OC)c1
1310 s	Fc1ccc(-c2csc(Cc3nc(-c4cccc(Cl)c4)no3)n2)cc1
713 s	Cc1cc(N2CCCCC2)nc(N2CCN(C(=O)C3CCCC3)CC2)n1
815 s	COc1ccccc1Cn1cc(C(=O)c2ccccc2)c(=O)c2cc3c(cc21)OCCO3
686 s	O=C(Cn1cnc2nc(N3CCC(C(=O)NC4CC4)CC3)sc2c1=O)Nc1ccc(Cl)cc1
888 s	Cc1cc(C)n(Cc2nc(-c3ccc(NC(=O)c4ccc5c(c4)OCO5)cc3)oc2C)n1

RP-LC retention time	SMILES
569 s	O=C(NCCCN1CCCCC1)C1CCN(c2cncnc2N2CCCCC2)CC1
707 s	CS(=O)(=O)N1CCCC(C(=O)Nc2nc3cc4c(cc3s2)OCCO4)C1 (stereo not drawn)
564 s	CCN(CC)CCCNC(=O)C1CCN(C(=O)c2oc3cc4sc(N(C)C)nc4cc3c2C)CC1
761 s	COc1ccc(-c2nc3cc(C)ccn3c2Nc2ccc(C)cc2)cc1
704 s	CCC(=O)Nc1ccc2c(c1)Sc1ncccc1C(=O)N2C(C)C
788 s	COc1ccc(NC(=O)Cn2cccc(-c3nc(-c4ccc(OC)c(OC)c4)no3)c2=O)c(OC)c1
932 s	COc1ccc(-n2ccc(=O)c(-c3nc(-c4ccc(C)cc4)no3)n2)cc1
776 s	CC(C)NC(=O)C(=O)c1c(-c2ccccc2)[nH]c2ccccc12
615 s	CC(C)(C)C(=O)Nc1ccc(N2CCC(N3CCCCC3)CC2)cc1C(=O)O
1270 s	COc1ccc(-c2csc(C)n2)cc1S(=O)(=O)N1CCN(c2cccc(C)c2C)CC1
884 s	Cc1noc([C@@H]2CC(F)(F)CN2S(=O)(=O)c2ccc(F)cc2)n1
1250 s	COc1ccc(C2Cn3nnc(-c4nc(-c5ccc(OC(C)C)cc5)no4)c3CO2)cc1 (stereo not drawn)
771 s	NC(=O)C1CCN(C(=O)Cn2c(=O)n(C3CCCCC3)c(=O)c3cc(Br)ccc32)CC1
1230 s	CCCN1C(=O)COc2ccc(-c3noc(-c4ccccc4C(F)(F)F)n3)cc21
1030 s	Cc1ccc(-n2ccc(=O)c(-c3nc(-c4ccc(Br)cc4)no3)n2)cc1
861 s	COc1cccc(N2CCN(c3ccnc(SCC(=O)Nc4c(C)cc(C)cc4C)n3)CC2)c1
584 s	c1ccc(-n2cnnc2C2CCCCN2Cc2ccncc2)cc1 (stereo not drawn)
815 s	O=C(c1ccco1)N1CCc2cc(-c3ccno3)ccc21
841 s	COc1ccc(CNS(=O)(=O)c2cn(C(C)C)c3ncccc23)cc1
803 s	Cc1ccc(NC(=O)N2CCC(OC3CCN(S(C)(=O)=O)CC3)CC2)cc1C
694 s	Cc1cnc(C(=O)N2CCCCCCNC(=O)[C@@H]3CCCC[C@@H]32)cn1
1050 s	CCOc1ccc(N2C(=O)C3N=NN(Cc4nc(-c5ccc(Br)cc5)no4)C3C2=O)cc1 (stereo not drawn)
